From the NIST ThermoML archive (doi:10.1021/acs.jced.9b00442)
± gives the expanded uncertainty stated by the source.

Conditions: 339.15 K; 100 kPa; Liquid; Vibrating tube method

| SMILES | mass density |
| --- | --- |
| CCCC[N+](C)(C)CC.O=S(=O)([N-]S(=O)(=O)C(F)(F)F)C(F)(F)F | 1336 ± 1.1 kg/m3 |

Same assay, conditions: 340.15 K; 100 kPa; Liquid; Vibrating tube method

| SMILES | mass density |
| --- | --- |
| CC[N+](C)(C)CCOC.O=S(=O)([N-]S(=O)(=O)C(F)(F)F)C(F)(F)F | 1392.2 ± 1.1 kg/m3 |
| CC[N+](C)(C)CCCO.O=S(=O)([N-]S(=O)(=O)C(F)(F)F)C(F)(F)F | 1427 ± 1.1 kg/m3 |
| CCCC[N+](C)(C)CC.O=S(=O)([N-]S(=O)(=O)C(F)(F)F)C(F)(F)F | 1335.2 ± 1.1 kg/m3 |

Same assay, conditions: 341.15 K; 100 kPa; Liquid; Vibrating tube method

| SMILES | mass density |
| --- | --- |
| CC[N+](C)(C)CCOC.O=S(=O)([N-]S(=O)(=O)C(F)(F)F)C(F)(F)F | 1391.3 ± 1.1 kg/m3 |
| CC[N+](C)(C)CCCO.O=S(=O)([N-]S(=O)(=O)C(F)(F)F)C(F)(F)F | 1426.1 ± 1.1 kg/m3 |
| CCCC[N+](C)(C)CC.O=S(=O)([N-]S(=O)(=O)C(F)(F)F)C(F)(F)F | 1334.3 ± 1.1 kg/m3 |

Same assay, conditions: 342.15 K; 100 kPa; Liquid; Vibrating tube method

| SMILES | mass density |
| --- | --- |
| CC[N+](C)(C)CCOC.O=S(=O)([N-]S(=O)(=O)C(F)(F)F)C(F)(F)F | 1390.4 ± 1.1 kg/m3 |
| CC[N+](C)(C)CCCO.O=S(=O)([N-]S(=O)(=O)C(F)(F)F)C(F)(F)F | 1425.3 ± 1.1 kg/m3 |
| CCCC[N+](C)(C)CC.O=S(=O)([N-]S(=O)(=O)C(F)(F)F)C(F)(F)F | 1333.5 ± 1.1 kg/m3 |

Same assay, conditions: 343.15 K; 100 kPa; Liquid; Concentric cylinders viscometry

| SMILES | viscosity |
| --- | --- |
| CC[N+](C)(C)CCOC.O=S(=O)([N-]S(=O)(=O)C(F)(F)F)C(F)(F)F | 13.7 ± 0.6 mPa·s |
| CC[N+](C)(C)CCCO.O=S(=O)([N-]S(=O)(=O)C(F)(F)F)C(F)(F)F | 24.6 ± 1 mPa·s |
| CCCC[N+](C)(C)CC.O=S(=O)([N-]S(=O)(=O)C(F)(F)F)C(F)(F)F | 18.2 ± 0.7 mPa·s |

Same assay, conditions: 343.15 K; 100 kPa; Liquid; Vibrating tube method

| SMILES | mass density |
| --- | --- |
| CC[N+](C)(C)CCOC.O=S(=O)([N-]S(=O)(=O)C(F)(F)F)C(F)(F)F | 1389.5 ± 1.1 kg/m3 |
| CC[N+](C)(C)CCCO.O=S(=O)([N-]S(=O)(=O)C(F)(F)F)C(F)(F)F | 1424.4 ± 1.1 kg/m3 |
| CCCC[N+](C)(C)CC.O=S(=O)([N-]S(=O)(=O)C(F)(F)F)C(F)(F)F | 1332.6 ± 1.1 kg/m3 |

Same assay, conditions: 344.15 K; 100 kPa; Liquid; Vibrating tube method

| SMILES | mass density |
| --- | --- |
| CC[N+](C)(C)CCOC.O=S(=O)([N-]S(=O)(=O)C(F)(F)F)C(F)(F)F | 1388.6 ± 1.1 kg/m3 |
| CC[N+](C)(C)CCCO.O=S(=O)([N-]S(=O)(=O)C(F)(F)F)C(F)(F)F | 1423.6 ± 1.1 kg/m3 |
| CCCC[N+](C)(C)CC.O=S(=O)([N-]S(=O)(=O)C(F)(F)F)C(F)(F)F | 1331.8 ± 1.1 kg/m3 |

Same assay, conditions: 345.15 K; 100 kPa; Liquid; Vibrating tube method

| SMILES | mass density |
| --- | --- |
| CC[N+](C)(C)CCOC.O=S(=O)([N-]S(=O)(=O)C(F)(F)F)C(F)(F)F | 1387.7 ± 1.1 kg/m3 |
| CC[N+](C)(C)CCCO.O=S(=O)([N-]S(=O)(=O)C(F)(F)F)C(F)(F)F | 1422.7 ± 1.1 kg/m3 |
| CCCC[N+](C)(C)CC.O=S(=O)([N-]S(=O)(=O)C(F)(F)F)C(F)(F)F | 1330.9 ± 1.1 kg/m3 |

Same assay, conditions: 346.15 K; 100 kPa; Liquid; Vibrating tube method

| SMILES | mass density |
| --- | --- |
| CC[N+](C)(C)CCOC.O=S(=O)([N-]S(=O)(=O)C(F)(F)F)C(F)(F)F | 1386.7 ± 1.1 kg/m3 |
| CC[N+](C)(C)CCCO.O=S(=O)([N-]S(=O)(=O)C(F)(F)F)C(F)(F)F | 1421.9 ± 1.1 kg/m3 |
| CCCC[N+](C)(C)CC.O=S(=O)([N-]S(=O)(=O)C(F)(F)F)C(F)(F)F | 1330.1 ± 1.1 kg/m3 |

Same assay, conditions: 347.15 K; 100 kPa; Liquid; Vibrating tube method

| SMILES | mass density |
| --- | --- |
| CC[N+](C)(C)CCOC.O=S(=O)([N-]S(=O)(=O)C(F)(F)F)C(F)(F)F | 1385.8 ± 1.1 kg/m3 |
| CC[N+](C)(C)CCCO.O=S(=O)([N-]S(=O)(=O)C(F)(F)F)C(F)(F)F | 1421 ± 1.1 kg/m3 |
| CCCC[N+](C)(C)CC.O=S(=O)([N-]S(=O)(=O)C(F)(F)F)C(F)(F)F | 1329.2 ± 1.1 kg/m3 |

Same assay, conditions: 348.15 K; 100 kPa; Liquid; Concentric cylinders viscometry

| SMILES | viscosity |
| --- | --- |
| CC[N+](C)(C)CCOC.O=S(=O)([N-]S(=O)(=O)C(F)(F)F)C(F)(F)F | 12.2 ± 0.5 mPa·s |
| CC[N+](C)(C)CCCO.O=S(=O)([N-]S(=O)(=O)C(F)(F)F)C(F)(F)F | 21.2 ± 0.9 mPa·s |
| CCCC[N+](C)(C)CC.O=S(=O)([N-]S(=O)(=O)C(F)(F)F)C(F)(F)F | 15.9 ± 0.6 mPa·s |

Same assay, conditions: 348.15 K; 100 kPa; Liquid; Vibrating tube method

| SMILES | mass density |
| --- | --- |
| CC[N+](C)(C)CCOC.O=S(=O)([N-]S(=O)(=O)C(F)(F)F)C(F)(F)F | 1384.9 ± 1.1 kg/m3 |
| CC[N+](C)(C)CCCO.O=S(=O)([N-]S(=O)(=O)C(F)(F)F)C(F)(F)F | 1420.1 ± 1.1 kg/m3 |
| CCCC[N+](C)(C)CC.O=S(=O)([N-]S(=O)(=O)C(F)(F)F)C(F)(F)F | 1328.4 ± 1.1 kg/m3 |

Same assay, conditions: 349.15 K; 100 kPa; Liquid; Vibrating tube method

| SMILES | mass density |
| --- | --- |
| CC[N+](C)(C)CCOC.O=S(=O)([N-]S(=O)(=O)C(F)(F)F)C(F)(F)F | 1384 ± 1.1 kg/m3 |
| CC[N+](C)(C)CCCO.O=S(=O)([N-]S(=O)(=O)C(F)(F)F)C(F)(F)F | 1419.3 ± 1.1 kg/m3 |
| CCCC[N+](C)(C)CC.O=S(=O)([N-]S(=O)(=O)C(F)(F)F)C(F)(F)F | 1327.5 ± 1.1 kg/m3 |

Same assay, conditions: 350.15 K; 100 kPa; Liquid; Vibrating tube method

| SMILES | mass density |
| --- | --- |
| CC[N+](C)(C)CCOC.O=S(=O)([N-]S(=O)(=O)C(F)(F)F)C(F)(F)F | 1383.1 ± 1.1 kg/m3 |
| CC[N+](C)(C)CCCO.O=S(=O)([N-]S(=O)(=O)C(F)(F)F)C(F)(F)F | 1418.4 ± 1.1 kg/m3 |
| CCCC[N+](C)(C)CC.O=S(=O)([N-]S(=O)(=O)C(F)(F)F)C(F)(F)F | 1326.7 ± 1.1 kg/m3 |

Same assay, conditions: 351.15 K; 100 kPa; Liquid; Vibrating tube method

| SMILES | mass density |
| --- | --- |
| CC[N+](C)(C)CCOC.O=S(=O)([N-]S(=O)(=O)C(F)(F)F)C(F)(F)F | 1382.2 ± 1.1 kg/m3 |
| CC[N+](C)(C)CCCO.O=S(=O)([N-]S(=O)(=O)C(F)(F)F)C(F)(F)F | 1417.6 ± 1.1 kg/m3 |
| CCCC[N+](C)(C)CC.O=S(=O)([N-]S(=O)(=O)C(F)(F)F)C(F)(F)F | 1325.9 ± 1.1 kg/m3 |

Same assay, conditions: 352.15 K; 100 kPa; Liquid; Vibrating tube method

| SMILES | mass density |
| --- | --- |
| CC[N+](C)(C)CCOC.O=S(=O)([N-]S(=O)(=O)C(F)(F)F)C(F)(F)F | 1381.3 ± 1.1 kg/m3 |
